Assay results from patent publication US8802866B2, “Pyridinylimidazolone derivatives for the inhibition of PI3 kinases” (Merck Patent GmbH, priority 2009, dated 2014).

Legend:
DNA-PK protein complex = DNA-PK protein complex (Homo sapiens, UniProt P78527); assay: Biochemical DNA-PK assay (FlashPlate)
Procedure, shortened: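 Streptavidin-coated FlashPlate radiometric kinase assay, stopped with 200 mM EDTA, then wells washed with 0.9% NaCl and bound radioactivity counted. Blank (non-specific reaction) defined with a proprietary kinase inhibitor at 10 μM.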

[1] = molecular target: recombinant PI3Kalpha (shortened form of the catalytic subunit) (Homo sapiens, UniProt P42336); assay: BIACORE PI3K binding assay (SPR); settings: 25° C.
Chain of recombinant PI3Kalpha (shortened form of the catalytic subunit) (P42336 151-1068 limits assumed): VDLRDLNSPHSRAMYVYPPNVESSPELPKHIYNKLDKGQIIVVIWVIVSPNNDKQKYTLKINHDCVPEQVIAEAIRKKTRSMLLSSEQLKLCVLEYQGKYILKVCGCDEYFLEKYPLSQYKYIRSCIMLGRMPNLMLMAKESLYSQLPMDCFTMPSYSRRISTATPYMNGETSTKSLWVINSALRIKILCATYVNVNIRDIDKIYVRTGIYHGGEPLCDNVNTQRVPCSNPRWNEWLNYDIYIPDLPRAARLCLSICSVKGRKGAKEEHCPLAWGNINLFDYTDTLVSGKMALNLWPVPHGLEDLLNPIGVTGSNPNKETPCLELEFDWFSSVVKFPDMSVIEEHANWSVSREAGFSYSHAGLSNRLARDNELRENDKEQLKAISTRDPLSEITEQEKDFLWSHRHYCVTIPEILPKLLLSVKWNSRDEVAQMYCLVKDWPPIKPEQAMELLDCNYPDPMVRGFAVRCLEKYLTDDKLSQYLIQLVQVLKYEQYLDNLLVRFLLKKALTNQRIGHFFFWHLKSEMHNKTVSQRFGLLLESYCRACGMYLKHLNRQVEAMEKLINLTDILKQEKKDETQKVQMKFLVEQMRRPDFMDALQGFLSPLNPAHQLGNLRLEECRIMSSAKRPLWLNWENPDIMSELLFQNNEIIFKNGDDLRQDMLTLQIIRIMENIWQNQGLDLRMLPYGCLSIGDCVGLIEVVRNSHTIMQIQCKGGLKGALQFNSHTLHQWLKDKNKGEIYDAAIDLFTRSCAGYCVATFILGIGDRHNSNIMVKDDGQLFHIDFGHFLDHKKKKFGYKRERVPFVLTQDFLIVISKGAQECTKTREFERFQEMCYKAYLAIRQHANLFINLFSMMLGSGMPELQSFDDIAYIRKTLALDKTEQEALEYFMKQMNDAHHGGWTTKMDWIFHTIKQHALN
Method: SPR measurements of the binding affinities and binding kinetics on PI3Kalpha surfaces with the aid of Biacore systems. The experiments are carried out on a Biacore S51 “Compound Characterization” or a Biacore T100 instrument utilising the default application “Kinetics/Affinity” Experimental conditions: recombinant PI3Kalpha (shortened form of the catalytic subunit, missing N terminal from about 100 to 150 aa, Mw about 110 kDa, prepared by Proteros Biostructures GmbH) is immobilised on Biacore CM5 chips (25° C., flow rate: 10 μl/min, utilising amine coupling at pH 7.40—Biacore Standard protocol). PI3Kalpha is employed in concentrations between 10 and 25 μg/ml. Depending on the duration of the injection time, immobilisation levels from 1700 to 11000 RU are achieved. The substances to be measured are added in the form of a titration series. The substance concentration is doubled for each subsequent injection. 10 different substance concentrations which cover a 500-fold dilution range are usually injected. […] Kinetic titration experiments are carried out at 25° C. with a flow rate of 30 μl/min, the sample contact time is 180 s, and the dissociation time is 240 s in a running buffer (20 mM HEPES pH7.40, 150 mM NaCl, 5 mM MgCl2, 1 mM DTT, 0.1 mM EDTA, 0.05% Tween 20) comprising 2% of DMSO. Buffer injections (as double references) identical to the sample injections are carried out in each case at the beginning of a continuous series. Solvent correction cycles (eight correction points, 1.4%-2.8% DMSO) are carried out at equal intervals. In order to condition the surface, at least five start-up cycles (buffer injections) are carried out. Data points are collected with a sample rate of 10 Hz. Surface regeneration is carried out after each measurement cycle, apart from after the solvent correction runs. For this purpose, two times 100 mM NaHCO3 pH 8.60 are injected for 30 sec. Data sets are processed and analysed using the Biacore S51 Evaluation software, version 1.2.1, or Biacore T100 Evaluation, version 2.0. Solvent-corrected and double-referenced association and dissociation phase data are adapted to a simple 1:1 interaction model with mass transport limitations.

mTOR = molecular target: T1, mTOR (Homo sapiens, UniProt P42345); assay: Biochemical mTOR assay (Millipore mTOR assay kit)
T1 construct: purchased Millipore 14-770
T1 sequence (P42345 1362-2549 limits assumed): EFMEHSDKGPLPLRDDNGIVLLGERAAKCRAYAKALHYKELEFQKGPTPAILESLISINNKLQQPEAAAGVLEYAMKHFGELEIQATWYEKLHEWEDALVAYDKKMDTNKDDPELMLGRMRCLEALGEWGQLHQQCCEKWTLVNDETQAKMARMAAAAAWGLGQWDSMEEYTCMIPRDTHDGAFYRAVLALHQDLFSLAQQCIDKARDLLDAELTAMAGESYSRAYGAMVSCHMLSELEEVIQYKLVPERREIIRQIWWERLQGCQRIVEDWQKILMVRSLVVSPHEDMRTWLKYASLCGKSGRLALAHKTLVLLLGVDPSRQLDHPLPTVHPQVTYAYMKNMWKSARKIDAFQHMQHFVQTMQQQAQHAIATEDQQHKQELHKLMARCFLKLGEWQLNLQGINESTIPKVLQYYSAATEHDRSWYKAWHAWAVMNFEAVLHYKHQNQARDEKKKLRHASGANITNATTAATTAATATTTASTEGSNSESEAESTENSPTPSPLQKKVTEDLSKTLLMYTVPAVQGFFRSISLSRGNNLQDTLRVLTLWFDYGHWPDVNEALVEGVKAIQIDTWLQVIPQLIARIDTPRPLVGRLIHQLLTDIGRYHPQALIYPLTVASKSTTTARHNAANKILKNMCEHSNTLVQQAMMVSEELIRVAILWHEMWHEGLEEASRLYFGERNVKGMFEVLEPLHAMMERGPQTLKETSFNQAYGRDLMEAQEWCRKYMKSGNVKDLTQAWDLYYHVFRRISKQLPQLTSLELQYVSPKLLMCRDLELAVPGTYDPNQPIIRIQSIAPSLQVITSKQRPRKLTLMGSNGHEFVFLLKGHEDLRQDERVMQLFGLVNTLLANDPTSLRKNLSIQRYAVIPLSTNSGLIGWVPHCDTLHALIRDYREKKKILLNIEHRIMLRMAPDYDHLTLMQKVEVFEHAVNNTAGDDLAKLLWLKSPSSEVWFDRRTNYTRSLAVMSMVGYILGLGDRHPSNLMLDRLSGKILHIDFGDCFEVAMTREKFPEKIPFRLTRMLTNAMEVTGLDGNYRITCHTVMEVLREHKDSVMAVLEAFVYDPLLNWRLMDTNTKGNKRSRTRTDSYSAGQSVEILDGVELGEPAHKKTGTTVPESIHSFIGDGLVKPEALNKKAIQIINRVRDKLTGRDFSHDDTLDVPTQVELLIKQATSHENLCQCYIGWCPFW
Method: The biochemical mTOR assay was carried out by the method described in the Millipore mTOR assay kit (catalogue number 14-770).

PI3Kalpha = PI3Kalpha (Homo sapiens, UniProt P42336); assay: Biochemical PI3Kalpha assay (neomycin SPA, lipid phosphorylation); settings: human recombinant GST-PI3K
Chain of PI3Kalpha (P42336 whole entry): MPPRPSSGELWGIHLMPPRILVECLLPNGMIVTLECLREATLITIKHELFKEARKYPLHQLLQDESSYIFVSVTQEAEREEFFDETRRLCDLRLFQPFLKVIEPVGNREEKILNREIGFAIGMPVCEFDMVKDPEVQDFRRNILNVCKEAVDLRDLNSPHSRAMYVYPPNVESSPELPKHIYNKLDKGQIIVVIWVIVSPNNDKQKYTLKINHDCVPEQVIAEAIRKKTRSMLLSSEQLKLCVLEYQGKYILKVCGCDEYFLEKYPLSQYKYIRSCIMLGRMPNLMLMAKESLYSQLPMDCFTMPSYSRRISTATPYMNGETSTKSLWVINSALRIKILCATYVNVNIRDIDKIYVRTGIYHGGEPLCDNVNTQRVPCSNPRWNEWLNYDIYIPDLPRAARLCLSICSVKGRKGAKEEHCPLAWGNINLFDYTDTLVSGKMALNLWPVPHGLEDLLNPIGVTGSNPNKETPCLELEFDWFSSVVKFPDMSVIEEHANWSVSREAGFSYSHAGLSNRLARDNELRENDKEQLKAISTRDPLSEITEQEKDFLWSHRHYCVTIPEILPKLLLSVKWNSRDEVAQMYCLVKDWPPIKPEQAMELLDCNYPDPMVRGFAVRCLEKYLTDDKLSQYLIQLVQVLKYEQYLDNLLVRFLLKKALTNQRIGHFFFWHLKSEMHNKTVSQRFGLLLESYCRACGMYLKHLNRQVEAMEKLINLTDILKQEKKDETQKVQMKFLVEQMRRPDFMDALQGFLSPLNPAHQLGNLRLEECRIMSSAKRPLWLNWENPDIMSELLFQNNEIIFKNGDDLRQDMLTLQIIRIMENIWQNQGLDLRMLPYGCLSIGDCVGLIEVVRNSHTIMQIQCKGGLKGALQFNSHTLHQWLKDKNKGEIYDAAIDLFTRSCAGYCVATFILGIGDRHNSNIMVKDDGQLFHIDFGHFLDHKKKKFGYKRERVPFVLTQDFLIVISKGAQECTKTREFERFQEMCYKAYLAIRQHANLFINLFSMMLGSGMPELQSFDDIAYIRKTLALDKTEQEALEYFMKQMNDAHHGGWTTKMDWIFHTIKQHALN
Chain of PI3Kalpha (P27986 whole entry partner): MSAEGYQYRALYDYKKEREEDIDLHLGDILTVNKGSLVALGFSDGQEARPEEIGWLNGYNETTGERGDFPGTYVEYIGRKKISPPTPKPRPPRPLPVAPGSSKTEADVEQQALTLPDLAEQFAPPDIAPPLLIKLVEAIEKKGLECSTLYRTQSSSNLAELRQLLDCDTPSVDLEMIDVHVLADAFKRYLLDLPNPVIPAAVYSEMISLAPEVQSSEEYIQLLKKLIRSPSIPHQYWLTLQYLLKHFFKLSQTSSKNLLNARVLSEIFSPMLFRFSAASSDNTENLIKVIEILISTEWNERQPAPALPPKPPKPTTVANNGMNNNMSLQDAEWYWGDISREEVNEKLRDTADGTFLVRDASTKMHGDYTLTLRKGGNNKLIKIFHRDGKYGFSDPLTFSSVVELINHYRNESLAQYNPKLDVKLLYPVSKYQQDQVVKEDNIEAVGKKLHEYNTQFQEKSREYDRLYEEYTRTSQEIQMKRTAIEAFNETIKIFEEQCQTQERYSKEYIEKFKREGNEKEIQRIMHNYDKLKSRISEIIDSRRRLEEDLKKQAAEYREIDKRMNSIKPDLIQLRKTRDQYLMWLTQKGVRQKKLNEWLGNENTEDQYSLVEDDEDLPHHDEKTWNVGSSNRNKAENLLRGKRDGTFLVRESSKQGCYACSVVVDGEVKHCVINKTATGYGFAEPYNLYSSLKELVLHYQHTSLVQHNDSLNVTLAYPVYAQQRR
Procedure, shortened: (§1)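 Recombinant PI3K incubated with lipid substrate and radioactive ATP for 120 min at room temperature with gentle stirring, then stopped with neomycin-coated PVT-SPA beads, ATP 60 mM and EDTA 6.2 mM in PBS. After 60 min bead binding and centrifugation, radioactive Ptdlns(3)P counted by scintillation.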

[2] = test system: PI3K-dependent phosphorylation of PKB at Serin 473 in PC3 cells; assay: Cellular PI3K assay (P-S473-PKB Luminex assay in PC3 cells); type: cell-based; settings: Homo sapiens, PC-3, 0.5 h; PC3 cells, 30 min, serum-free, P-S473-PKB; read-out: IC50 (cell)
Procedure, shortened: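 PC3 cells were exposed for 30 min under serum-free conditions to 7 concentrations of compound, then lysed. Lysates were captured overnight at 4°C on anti-total-PKB Luminex beads and detected with P-S473-PKB antibody plus PE-labelled secondary.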

PI3Kbeta = PI3Kbeta (Homo sapiens, UniProt P42338); assay: Biochemical PI3Kbeta assay (neomycin SPA, lipid phosphorylation); settings: human recombinant GST-PI3K
Chain of PI3Kbeta (P42338 whole entry): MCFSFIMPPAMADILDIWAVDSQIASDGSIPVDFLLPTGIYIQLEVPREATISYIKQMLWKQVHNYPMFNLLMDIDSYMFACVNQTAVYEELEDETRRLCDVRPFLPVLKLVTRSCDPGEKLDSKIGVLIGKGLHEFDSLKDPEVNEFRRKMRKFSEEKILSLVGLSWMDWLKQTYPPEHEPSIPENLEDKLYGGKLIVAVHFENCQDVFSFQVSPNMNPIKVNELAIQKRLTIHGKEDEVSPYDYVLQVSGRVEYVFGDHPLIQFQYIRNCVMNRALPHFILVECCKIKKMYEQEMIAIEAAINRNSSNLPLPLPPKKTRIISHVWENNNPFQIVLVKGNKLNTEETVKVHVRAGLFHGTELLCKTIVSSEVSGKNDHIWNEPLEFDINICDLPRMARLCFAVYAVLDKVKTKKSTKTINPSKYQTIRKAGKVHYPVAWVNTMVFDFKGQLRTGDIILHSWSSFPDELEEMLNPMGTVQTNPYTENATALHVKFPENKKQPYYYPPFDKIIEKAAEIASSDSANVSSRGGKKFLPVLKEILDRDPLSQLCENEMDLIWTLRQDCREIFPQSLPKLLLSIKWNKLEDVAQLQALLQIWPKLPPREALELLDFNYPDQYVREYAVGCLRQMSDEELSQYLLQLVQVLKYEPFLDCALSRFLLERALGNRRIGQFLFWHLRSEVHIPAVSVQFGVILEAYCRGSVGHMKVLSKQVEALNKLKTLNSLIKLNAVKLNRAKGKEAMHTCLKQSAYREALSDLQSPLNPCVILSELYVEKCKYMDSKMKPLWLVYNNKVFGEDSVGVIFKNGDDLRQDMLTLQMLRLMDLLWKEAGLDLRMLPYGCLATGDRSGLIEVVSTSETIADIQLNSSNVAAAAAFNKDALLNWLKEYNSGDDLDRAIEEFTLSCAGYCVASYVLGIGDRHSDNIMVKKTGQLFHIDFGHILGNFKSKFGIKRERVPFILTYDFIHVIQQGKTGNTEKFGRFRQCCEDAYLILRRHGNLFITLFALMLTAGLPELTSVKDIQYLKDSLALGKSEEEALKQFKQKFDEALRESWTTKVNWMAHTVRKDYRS
Chain of PI3Kbeta (P27986 whole entry partner): as the sequence (P27986 whole entry partner) above
Procedure, shortened: as §1

Row | IC50 (DNA-PK protein complex) [nM] | Kd [1] [nM] | IC50 (mTOR) [nM] | IC50 (PI3Kalpha) [nM] | IC50 [2] [nM] | IC50 (PI3Kbeta) [nM] | Structure (SMILES)
1 | 0.1 to 100 | 100 to 10000 | 100 to 10000 | 100 to 10000 | 100 to 10000 | 100 to 10000 | COc1ccc(-c2ccnc(-c3cn(C)c(=O)n3-c3ccc(N4CCNCC4)c(C(F)(F)F)c3)c2)cn1 [Example A20, 4-(6-Methoxy-[3,4′]bipyridinyl-2′-yl)-1-methyl-3-(4-piperazin-1-yl-3-trifluoro-methylphenyl)-1,3-dihydroimidazol-2-one]
2 | 0.1 to 100 | 100 to 10000 | 100 to 10000 | 100 to 10000 | 100 to 10000 | > 10000 | Cn1cc(-c2cc(-c3ccnc4[nH]ccc34)ccn2)n(-c2ccc(C(C)(C)C#N)cc2)c1=O [Example A23, 2-Methyl-2-(4-{3-methyl-2-oxo-5-[4-(1H-pyrrolo[2,3-b]pyridin-4-yl)pyridin-2-yl]-2,3-dihydroimidazol-1-yl}phenyl)propionitrile]
3 | 0.1 to 100 | 100 to 10000 | 0.1 to 100 | 100 to 10000 | 100 to 10000 | > 10000 | Cn1cc(-c2cc(-c3cnc4[nH]c(C(F)(F)F)cc4c3)ccn2)n(-c2ccc(C(C)(C)C#N)cc2)c1=O [Example A27, 2-Methyl-2-(4-{3-methyl-2-oxo-5-[4-(2-trifluoromethyl-1H-pyrrolo[2,3-b]pyridin-5-yl)pyridin-2-yl]-2,3-dihydroimidazol-1-yl}phenyl)propionitrile]
4 | 0.1 to 100 | 0.1 to 100 | 100 to 10000 | 0.1 to 100 | 100 to 10000 | 100 to 10000 | Cn1cc(-c2cc(-c3cnc4[nH]ncc4c3)ccn2)n(-c2ccc(N3CCNCC3)c(C(F)(F)F)c2)c1=O [Example A46, 1-Methyl-3-(4-piperazin-1-yl-3-trifluoromethylphenyl)-4-[4-(1H-pyrazolo[3,4-b]-pyridin-5-yl)pyridin-2-yl]-1,3-dihydroimidazol-2-one]
5 | 0.1 to 100 | 0.1 to 100 | 100 to 10000 | 100 to 10000 | 100 to 10000 | 100 to 10000 | CN1CCN(c2ccc(-n3c(-c4cc(-c5cnc6[nH]ccc6c5)ccn4)cn(C)c3=O)cc2)CC1 [Example A50, 1-Methyl-3-[4-(4-methylpiperazin-1-yl)phenyl]-4-[4-(1H-pyrrolo[2,3-b]pyridin-5-yl)pyridin-2-yl]-1,3-dihydroimidazol-2-one]
6 | 0.1 to 100 | – | 100 to 10000 | 100 to 10000 | > 10000 | > 10000 | Cn1cc(-c2cc(-c3ccc(NS(C)(=O)=O)nc3)ccn2)n(-c2ccc(N3CCNCC3)c(C(F)(F)F)c2)c1=O [Example A61, N-{2′-[1-Methyl-2-oxo-3-(4-piperazin-1-yl-3-trifluoromethylphenyl)-2,3-dihydro-1H-imidazol-4-yl]-[3,4′]bipyridinyl-6-yl}methanesulfonamide]
7 | 0.1 to 100 | – | 100 to 10000 | 100 to 10000 | 100 to 10000 | > 10000 | N#Cc1cccc(-n2c(-c3cc(-c4cnc5[nH]ccc5c4)ccn3)cn(C(F)F)c2=O)c1 [Example A75, 3-{3-Difluoromethyl-2-oxo-5-[4-(1H-pyrrolo[2,3-b]pyridin-5-yl)pyridin-2-yl]-2,3-dihydroimidazol-1-yl}benzonitrile]
8 | 0.1 to 100 | – | 0.1 to 100 | > 10000 | > 10000 | > 10000 | Cn1cc(-c2cc(-c3cnc4[nH]ccc4c3)ccn2)n(-c2ccccc2OC(F)(F)F)c1=O [Example A76, 1-Methyl-4-[4-(1H-pyrrolo[2,3-b]pyridin-5-yl)pyridin-2-yl]-3-(2-trifluoromethoxy-phenyl)-1,3-dihydroimidazol-2-one]

The next lines start with the compound.

Row | Structure (SMILES) | IC50 (DNA-PK protein complex) [nM] | Kd [1] [nM] | IC50 (mTOR) [nM] | IC50 (PI3Kalpha) [nM] | IC50 [2] [nM] | IC50 (PI3Kbeta) [nM]
9 | COc1cccc(-c2ccnc(-c3cn(C)c(=O)n3-c3ccc(C(C)(C)C#N)cc3)c2)c1 [Example A3, 2-(4-{5-[4-(3-Methoxyphenyl)pyridin-2-yl]-3-methyl-2-oxo-2,3-dihydroimidazol-1-yl}phenyl)-2-methylpropionitrile] | 0.1 to 100 | 100 to 10000 | > 10000 | 100 to 10000 | > 10000 | > 10000
10 | Cn1cc(-c2cc(-c3cnc4ccccc4c3)ccn2)n(-c2ccc(C(C)(C)C(=O)O)cc2)c1=O [Example A22, 2-Methyl-2-{4-[3-methyl-2-oxo-5-(4-quinolin-3-ylpyridin-2-yl)-2,3-dihydroimidazol-1-yl]phenyl}propionic acid] | 100 to 10000 | 100 to 10000 | 100 to 10000 | 100 to 10000 | > 10000 | > 10000
11 | CCn1cc(-c2cc(-c3cnc4[nH]ccc4c3)ccn2)n(-c2ccc(C(C)(C)C#N)cc2)c1=O [Example A24, 2-(4-{3-Ethyl-2-oxo-5-[4-(1H-pyrrolo[2,3-b]pyridin-5-yl)pyridin-2-yl]-2,3-dihydro-imidazol-1-yl}phenyl)-2-methylpropionitrile] | 0.1 to 100 | 0.1 to 100 | 0.1 to 100 | 100 to 10000 | 100 to 10000 | 100 to 10000
12 | Cn1cc(-c2cc(-c3ccc(=O)[nH]c3)ccn2)n(-c2ccc(C(C)(C)C#N)cc2)c1=O [Example A39, 2-{4-[5-(6-Hydroxy-[3,4′]bipyridinyl-2′-yl)-3-methyl-2-oxo-2,3-dihydroimidazol-1-yl]phenyl}-2-methylpropionitrile] | 0.1 to 100 | – | 100 to 10000 | – | > 10000 | –
13 | Cn1cc(-c2cc(-c3cnc4[nH]ccc4c3)ccn2)n(-c2ccc(F)c(C(F)(F)F)c2)c1=O [Example A51, 3-(4-Fluoro-3-trifluoromethylphenyl)-1-methyl-4-[4-(1H-pyrrolo[2,3-b]pyridin-5-yl)pyridin-2-yl]-1,3-dihydroimidazol-2-one] | 0.1 to 100 | – | 100 to 10000 | 100 to 10000 | 100 to 10000 | > 10000
14 | Cn1cc(-c2cc(-c3cnc4[nH]ccc4c3)ccn2)n(-c2ccc(N3CCN(S(C)(=O)=O)CC3)c(C(F)(F)F)c2)c1=O [Example A74, 3-[4-(4-Methanesulfonylpiperazin-1-yl)-3-trifluoromethylphenyl]-1-methyl-4-[4-(1H-pyrrolo[2,3-b]pyridin-5-yl)pyridin-2-yl]-1,3-dihydroimidazol-2-one] | 0.1 to 100 | – | 0.1 to 100 | 100 to 10000 | 0.1 to 100 | 100 to 10000
15 | CCN1CCN(c2ccc(-n3c(-c4cc(-c5cnc6[nH]ccc6c5)ccn4)cn(C)c3=O)cc2C(F)(F)F)CC1 [Example A77, 3-[4-(4-Ethylpiperazin-1-yl)-3-trifluoromethylphenyl]-1-methyl-4-[4-(1H-pyrrolo[2,3-b]pyridin-5-yl)pyridin-2-yl]-1,3-dihydroimidazol-2-one] | 0.1 to 100 | – | > 10000 | 100 to 10000 | 0.1 to 100 | 100 to 10000
16 | Cc1cccc(-n2c(-c3cc(-c4cnc5[nH]ccc5c4)ccn3)cn(C)c2=O)c1 [Example A79, 1-Methyl-4-[4-(1H-pyrrolo[2,3-b]pyridin-5-yl)pyridin-2-yl]-3-m-tolyl-1,3-dihydro-imidazol-2-one] | 0.1 to 100 | – | 100 to 10000 | 100 to 10000 | 100 to 10000 | 100 to 10000
17 | CC(C)c1cccc(-n2c(-c3cc(-c4cnc5[nH]ccc5c4)ccn3)cn(C)c2=O)c1 [Example A80, 3-(3-Isopropylphenyl)-1-methyl-4-[4-(1H-pyrrolo[2,3-b]pyridin-5-yl)pyridin-2-yl]-1,3-dihydroimidazol-2-one] | 0.1 to 100 | – | > 10000 | 100 to 10000 | 100 to 10000 | 100 to 10000
